Test results as given in ChEMBL document CHEMBL3044672, “N9- and N7-(Chloromethyl Phenymethyl)Chloropurine Derivatives from , '-Dichloroxylenes: Synthesis and Anticancer Activity” (2005).

Experiments:
Format in all cases: functional
EKVX = experiment: Cytotoxicity against Homo sapiens (human) EKVX cells after 48 hr by sulforhodamine B assay
BT-549 = experiment: Cytotoxicity against Homo sapiens (human) BT549 cells after 48 hr by sulforhodamine B assay; settings: BT-549, 48 h
NCI-H460 = experiment: Cytotoxicity against Homo sapiens (human) NCI-H460 cells after 48 hr by sulforhodamine B assay; settings: NCI-H460, 48 h
SN12C = experiment: Cytotoxicity against Homo sapiens (human) SN12C cells after 48 hr by sulforhodamine B assay
786-0 = experiment: Cytotoxicity against Homo sapiens (human) 786-0 cells after 48 hr by sulforhodamine B assay; settings: 786-0, 48 h
MCF7 = experiment: Cytotoxicity against Homo sapiens (human) MCF7 cells after 48 hr by sulforhodamine B assay; settings: MCF7, 48 h
U-251 = experiment: Cytotoxicity against Homo sapiens (human) U251 cells after 48 hr by sulforhodamine B assay; settings: U-251, 48 h
SK-MEL-5 = experiment: Cytotoxicity against Homo sapiens (human) SK-MEL-5 cells after 48 hr by sulforhodamine B assay; settings: SK-MEL-5, 48 h
NCI-H226 = experiment: Cytotoxicity against Homo sapiens (human) NCI-H226 cells after 48 hr by sulforhodamine B assay; settings: NCI-H226, 48 h
SF-539 = experiment: Cytotoxicity against Homo sapiens (human) SF539 cells after 48 hr by sulforhodamine B assay; settings: SF-539, 48 h
HOP-92 = experiment: Cytotoxicity against Homo sapiens (human) HOP92 cells after 48 hr by sulforhodamine B assay; settings: HOP-92, 48 h
MDA-MB-435 = experiment: Cytotoxicity against Homo sapiens (human) MDA-MB-435 cells after 48 hr by sulforhodamine B assay; settings: MDA-MB-435, 48 h
UO-31 = experiment: Cytotoxicity against Homo sapiens (human) UO31 cells after 48 hr by sulforhodamine B assay; settings: UO-31, 48 h
T47D = experiment: Cytotoxicity against Homo sapiens (human) T47D cells after 48 hr by sulforhodamine B assay
IGROV-1 = experiment: Cytotoxicity against Homo sapiens (human) IGROV1 cells after 48 hr by sulforhodamine B assay; settings: IGROV-1, 48 h
SW-620 = experiment: Cytotoxicity against Homo sapiens (human) SW620 cells after 48 hr by sulforhodamine B assay; settings: SW-620, 48 h
M14 = experiment: Cytotoxicity against Homo sapiens (human) M14 cells after 48 hr by sulforhodamine B assay; settings: M14, 48 h
PC-3 = experiment: Cytotoxicity against Homo sapiens (human) PC3 cells after 48 hr by sulforhodamine B assay; settings: PC-3, 48 h
SF-295 = experiment: Cytotoxicity against Homo sapiens (human) SF295 cells after 48 hr by sulforhodamine B assay; settings: SF-295, 48 h
SF-268 = experiment: Cytotoxicity against Homo sapiens (human) SF268 cells assessed as cell growth at 10^-4 M after 48 hr by […] assay; settings: SF-268, 48 h, read-out: Activity
SK-MEL-28 = experiment: Cytotoxicity against Homo sapiens (human) SK-MEL-28 cells after 48 hr by sulforhodamine B assay; settings: SK-MEL-28, 48 h
OVCAR-5 = experiment: Cytotoxicity against Homo sapiens (human) OVCAR5 cells after 48 hr by sulforhodamine B assay; settings: OVCAR-5, 48 h
OVCAR-8 = experiment: Cytotoxicity against Homo sapiens (human) OVCAR8 cells after 48 hr by sulforhodamine B assay; settings: OVCAR-8, 48 h
CAKI-1 = experiment: Cytotoxicity against Homo sapiens (human) Caki1 cells after 48 hr by sulforhodamine B assay; settings: CAKI-1, 48 h
SNB-19 = experiment: Cytotoxicity against Homo sapiens (human) SNB19 cells after 48 hr by sulforhodamine B assay; settings: SNB-19, 48 h
SK-MEL-2 = experiment: Cytotoxicity against Homo sapiens (human) SK-MEL-2 cells after 48 hr by sulforhodamine B assay; settings: SK-MEL-2, 48 h
HT-29 = experiment: Cytotoxicity against Homo sapiens (human) HT-29 cells after 48 hr by sulforhodamine B assay; settings: HT-29, 48 h
A498 = experiment: Cytotoxicity against Homo sapiens (human) A498 cells after 48 hr by sulforhodamine B assay; settings: A498, 48 h
OVCAR-3 = experiment: Cytotoxicity against Homo sapiens (human) OVCAR3 cells after 48 hr by sulforhodamine B assay; settings: OVCAR-3, 48 h
NCI-H322M = experiment: Cytotoxicity against Homo sapiens (human) NCI-H322M cells after 48 hr by sulforhodamine B assay
DU-145 = experiment: Cytotoxicity against Homo sapiens (human) DU145 cells after 48 hr by sulforhodamine B assay; settings: DU-145, 48 h
ACHN = experiment: Cytotoxicity against Homo sapiens (human) ACHN cells after 48 hr by sulforhodamine B assay
[1] = read-out: LC50 (the source's name)

## Nc1nc(Cl)c2ncn(Cc3cccc(CCl)c3)c2n1
EKVX
  GI50: 21.4 µM
  TGI: 36.3 µM
EKVX; [1]
  CC50: 60.2 µM
BT-549
  GI50: 4.07 µM
  LC50 (50% lethal concentration): 58.9 µM
  TGI: 17.4 µM
NCI-H460
  GI50: 4.26 µM
  TGI: 15.8 µM
NCI-H460; [1]
  CC50: 47.9 µM
SN12C
  GI50: 4.46 µM
  LC50 (50% lethal concentration): 39.8 µM
  TGI: 15.5 µM
786-0
  GI50: 6.6 µM
  LC50: 91.2 µM
  TGI: 26.3 µM
MCF7
  GI50: 2.39 µM
  LC50 (concentration killing 50% of cells): 53.7 µM
  TGI: 9.55 µM
U-251
  GI50: 1.82 µM
  LC50 (concentration killing 50% of cells): 9.33 µM
  TGI: 4.07 µM
SK-MEL-5
  GI50: 11 µM
  LC50: 51.3 µM
  TGI: 23.4 µM
NCI-H226
  GI50: 10.7 µM
  TGI: 42.6 µM
NCI-H226; [1]
  CC50: > 100 µM
SF-539
  GI50: 4.67 µM
  LC50 (concentration killing 50% of cells): 69.2 µM
  TGI: 20.4 µM
HOP-92
  GI50: 0.63 µM
  TGI: 38 µM
HOP-92; [1]
  CC50: > 100 µM
MDA-MB-435
  GI50: 3.81 µM
  LC50: 85.1 µM
  TGI: 22.4 µM
UO-31
  GI50: 13.5 µM
  LC50 (concentration causing 50% net cell kill): 77.6 µM
  TGI: 32.4 µM
T47D
  GI50: 6.02 µM
  LC50: > 100 µM
  TGI: 37.1 µM
IGROV-1
  GI50: 3.46 µM
  LC50: 55 µM
  TGI: 12.9 µM
SW-620
  GI50: 3.8 µM
  TGI: 11.2 µM
SW-620; [1]
  CC50: 57.5 µM
M14
  GI50: 3.63 µM
  LC50: 41.7 µM
  TGI: 11.7 µM
PC-3
  GI50: 9.77 µM
  LC50 (concentration causing 50% cell kill): 63.1 µM
  TGI: 25.1 µM
SF-295
  GI50: 3.38 µM
  TGI: 14.5 µM
SF-295; [1]
  CC50: 39.8 µM
SF-268
  growth at 100 µM: 0%
SK-MEL-28
  GI50: 4.46 µM
  LC50 (concentration killing 50% of cells): 74.1 µM
  TGI: 19.1 µM
OVCAR-5
  GI50: 11 µM
  TGI: 25.1 µM
OVCAR-5; [1]
  CC50: 57.5 µM
OVCAR-8
  GI50: 2.29 µM
  LC50 (concentration killing 50% of cells): 53.7 µM
  TGI: 6.76 µM
CAKI-1
  GI50: 0.24 µM
  TGI: 1.51 µM
CAKI-1; [1]
  CC50: 15.8 µM
SNB-19
  GI50: 3.16 µM
  LC50: 46.8 µM
  TGI: 15.1 µM
SK-MEL-2
  GI50: 10.7 µM
  LC50 (concentration killing 50% of cells): > 100 µM
  TGI: 66.1 µM
HT-29
  GI50: 2.51 µM
  TGI: 9.77 µM
HT-29; [1]
  CC50: 64.6 µM
A498
  GI50: 25.1 µM
  LC50 (lethal concentration, 50% cell kill): > 100 µM
  TGI: 51.3 µM
OVCAR-3
  GI50: 0.72 µM
  LC50: 5.49 µM
  TGI: 2.29 µM
NCI-H322M
  GI50: 10.5 µM
  TGI: 22.4 µM
NCI-H322M; [1]
  CC50: 46.8 µM
DU-145
  GI50: 4.26 µM
  LC50: 40.7 µM
  TGI: 16.6 µM
ACHN
  GI50: 2.88 µM
  TGI: 8.71 µM
ACHN; [1]
  CC50: 29.5 µM
